The source of these data is patent publication US20090054338A1, “Synergisms between repartitioning and immunomodulating compounds” (priority 2007, published 2009).

In one data set the test system is newborn calves. The experiment in a line: In vivo study in newborn calves (survival to weaning). Also on record: species or system cattle. The procedure: The present study was performed at a farm with a high rate of mortality of newborn calves from Cryptosporidiosis and upper respiratory infections.
Two groups of 13 newborn calves were studied. All animals were given milk replacement and beta 1.3/1.6 D-glucan was added to the milk replacement for the second group.

The test system of data set [1] is adrenergic beta-2 receptors. Description: Down-regulation of adrenergic beta-2 receptors, receptor binding on adipocytes. Particulars: rats. It counts as in vivo. The source says:
The populations of adrenergic beta-2 receptors on cells (adipocytes) from rats are studied.

A further data set relates to mice. Description: Stress-induced mortality (modified physostigmine-induced lethality test). It counts as in vivo. An excerpt:
A modification of the physostigmine-induced lethality test that successfully was used for testing of sedation by Schering in the loratadine project (Villani F. J., et al., U.S. Pat. No. 4,659,716, 1987) and by Sepracor in the desloratadine project (Aberg, G. et al. U.S. Pat. No. 5,595,997) was used. In short, mice that previously had not been housed together, suffer from severe stress when placed together (n=10) in a new environment, such as a small cage with which they are not familiar. […] Similarly, increased stress by ractopamine in livestock animals has been reported by Marchant-Forde et al., 2003. […] The number of surviving mice was counted 30 minutes after the animals had been placed in the test-cage, which was 60 min after the administration of ractopamine.

In the next data set the test system is barnacle naupii. Conditions: cited from earlier work.

Consider beta 1.3/1.6 D-glucan [Agrastim®], for which the survival of calves with newborn calves (8 weeks treatment in milk replacement, control 7 out of 13) is given as 12 out of 13. For the same compound, the “Calves Weaned” value in the data set with newborn calves (13 calves born, 500 mg day 1, 250 mg/day day 2-56 in milk replacement, farm with high calf mortality) was found to be 12. The “effect on salbutamol-induced down-regulation of adrenergic beta-2 receptors” value in data set [1] (glucan given one week before pump implantation and continuously thereafter) is recorded as “decreased or inhibited”. The “stress and stress-induced mortality in ractopamine-treated animals” value in the data set on mice (mice pretreated orally daily for five days, survivors counted 30 min after placing in test-cage, 60 min after ractopamine) is “significantly decreased stress and stress-induced mortality”.
Regarding `CC(C)(C)NCC(O)c1ccc(O)c(CO)c1` (racemic) [salbutamol], the “adrenergic beta-2 receptor population on adipocytes” value in data set [1] (one and two weeks continuous s.c. administration by Alza osmotic pumps) is reported as “down-regulated”. In addition, the LD50 entry in the data set with barnacle naupii was “approximately 1.8 μg/ml”.
As to `CNC(=O)Oc1ccc2c(c1)[C@]1(C)CCN(C)[C@@H]1N2C` [physostigmine], the lethality in the data set with mice (stressed grouped mice (n=10), 1.0 mg/kg s.c.) is on record as ~100%.
On to `CC(CCc1ccc(O)cc1)NCC(O)c1ccc(O)cc1` (stereo not drawn) [ractopamine], for which the stress entry in the data set with mice (grouped mice in unfamiliar cage) is “increased the stress”. Further, the mortality entry in the data set on mice (mice given a sub-lethal dose of physostigmine) is on record as “increased mortality”.
